Assay results reported in ChEMBL document CHEMBL3745675, “Design and optimization of selective azaindole amide M1 positive allosteric modulators” (Bioorg Med Chem Lett, 2016).

Columns and labels:
[1] = test system: Plasma; assay: Fraction unbound in Wistar Hann rat plasma at 5 mg/kg, sc after 1 hr; format: ADME, organism-based; details: in vivo
[2] = test system: Plasma; assay: Fraction unbound in Wistar Hann rat plasma at 5 mg/kg, sc after 2 hrs; format: ADME, organism-based; details: in vivo
[3] = test system: Plasma; assay: Fraction unbound in Wistar Hann rat plasma at 5 mg/kg, sc after 4 hrs; format: ADME, organism-based; details: in vivo
[4] = test system: Plasma; assay: Fraction unbound in Wistar Hann rat plasma at 5 mg/kg, sc after 6 hrs; format: ADME, organism-based; details: in vivo
[5] = Ratio of drug level in brain to plasma in Wistar Hann rat at 5 mg/kg, sc after 1 hr; format: ADME, organism-based
[6] = Ratio of drug level in brain to plasma in Wistar Hann rat at 5 mg/kg, sc after 2 hrs; format: ADME, organism-based
[7] = Ratio of drug level in brain to plasma in Wistar Hann rat at 5 mg/kg, sc after 4 hrs; format: ADME, organism-based
[8] = Ratio of drug level in brain to plasma in Wistar Hann rat at 5 mg/kg, sc after 6 hrs; format: ADME, organism-based
[9] = Ratio of unbound AUC in brain to plasma in Wistar Hann rat at 5 mg/kg, sc after 1 hr; format: ADME, organism-based; details: read-out: Ratio AUC
[10] = Ratio of unbound AUC in brain to plasma in Wistar Hann rat at 5 mg/kg, sc after 2 hrs; format: ADME, organism-based; details: brain and plasma, read-out: Ratio AUC
[11] = Ratio of unbound AUC in brain to plasma in Wistar Hann rat at 5 mg/kg, sc after 4 hrs; format: ADME, organism-based; details: brain and plasma, read-out: Ratio AUC
[12] = Ratio of unbound AUC in brain to plasma in Wistar Hann rat at 5 mg/kg, sc after 6 hrs; format: ADME, organism-based; details: brain and plasma, read-out: Ratio AUC
[13] = Drug concentration in Wistar Hann rat CSF at 5 mg/kg, sc after 1 hr; format: ADME, organism-based, Cerebrospinal fluid; details: read-out: Drug uptake
[14] = Drug concentration in Wistar Hann rat CSF at 5 mg/kg, sc after 2 hrs; format: ADME, organism-based, Cerebrospinal fluid; details: read-out: Drug uptake
[15] = Drug concentration in Wistar Hann rat CSF at 5 mg/kg, sc after 4 hrs; format: ADME, organism-based, Cerebrospinal fluid; details: read-out: Drug uptake
[16] = Drug concentration in Wistar Hann rat CSF at 5 mg/kg, sc after 6 hrs; format: ADME, organism-based, Cerebrospinal fluid; details: read-out: Drug uptake
[17] = Ratio of drug level in CSF to plasma in Wistar Hann rat at 5 mg/kg, sc after 1 hr; format: ADME, organism-based; details: CSF and plasma
[18] = Ratio of drug level in CSF to plasma in Wistar Hann rat at 5 mg/kg, sc after 2 hrs; format: ADME, organism-based; details: CSF and plasma
[19] = Ratio of drug level in CSF to plasma in Wistar Hann rat at 5 mg/kg, sc after 4 hrs; format: ADME, organism-based; details: CSF and plasma
[20] = Ratio of drug level in CSF to plasma in Wistar Hann rat at 5 mg/kg, sc after 6 hrs; format: ADME, organism-based; details: CSF and plasma
[21] = Ratio of unbound AUC in CSF to plasma in Wistar Hann rat at 5 mg/kg, sc after 1 hr; format: ADME, organism-based; details: CSF and plasma, read-out: Ratio AUC
[22] = Ratio of unbound AUC in CSF to plasma in Wistar Hann rat at 5 mg/kg, sc after 2 hrs; format: ADME, organism-based; details: CSF and plasma, read-out: Ratio AUC
[23] = Ratio of unbound AUC in CSF to plasma in Wistar Hann rat at 5 mg/kg, sc after 4 hrs; format: ADME, organism-based; details: CSF and plasma, read-out: Ratio AUC
[24] = Ratio of unbound AUC in CSF to plasma in Wistar Hann rat at 5 mg/kg, sc after 6 hrs; format: ADME, organism-based; details: CSF and plasma, read-out: Ratio AUC
[25] = Cmax in Wistar Hann rat plasma at 5 mg/kg, sc; format: ADME, organism-based; design: dose 5 mg/kg, route subcutaneous
[26] = Cmax in Wistar Hann rat brain at 5 mg/kg, sc; format: ADME, organism-based; design: dose 5 mg/kg, route subcutaneous
[27] = Cmax in Wistar Hann rat CSF at 5 mg/kg, sc; format: ADME, organism-based, Cerebrospinal fluid; design: dose 5 mg/kg, route subcutaneous
[28] = Tmax in Wistar Hann rat plasma at 5 mg/kg, sc; format: ADME, organism-based
[29] = Tmax in Wistar Hann rat brain at 5 mg/kg, sc; format: ADME, organism-based
[30] = Tmax in Wistar Hann rat CSF at 5 mg/kg, sc; format: ADME, organism-based, Cerebrospinal fluid
[31] = AUC (0 to tlast) in Wistar Hann rat plasma at 5 mg/kg, sc; format: ADME, organism-based
[32] = AUC (0 to tlast) in Wistar Hann rat brain at 5 mg/kg, sc; format: ADME, organism-based
[33] = AUC (0 to tlast) in Wistar Hann rat CSF at 5 mg/kg, sc; format: ADME, organism-based, Cerebrospinal fluid
[34] = AUC (0 to infinity) in Wistar Hann rat plasma at 5 mg/kg, sc; format: ADME, organism-based; design: dose 5 mg/kg, time infinity, route subcutaneous
[35] = AUC (0 to infinity) in Wistar Hann rat brain at 5 mg/kg, sc; format: ADME, organism-based; design: dose 5 mg/kg, route subcutaneous, time infinity
[36] = AUC (0 to infinity) in Wistar Hann rat CSF at 5 mg/kg, sc; format: ADME, organism-based, Cerebrospinal fluid; design: dose 5 mg/kg, time infinity, route subcutaneous

**Q.** For `Cn1ccc(-c2ccc(Cn3cc(C(=O)N[C@H]4CCOC[C@@H]4O)c4ncccc43)cc2)n1`, which “Cp(f)” value [1] is on record?
**A.** The value was 463 nM.

**Q.** What about the “Cp(f)” value [2] of the same molecule?
**A.** Its value is 502 nM.

**Q.** What about the “Cp(f)” value [3] of the same molecule?
**A.** The value was 293 nM.

**Q.** What about the “Cp(f)” value [4] of the same molecule?
**A.** Its value is 197.5 nM.

**Q.** And the Kp at 1 h [5]?
**A.** The Kp at 1 h was 0.21.

**Q.** And the Kp at 2 h [6]?
**A.** The Kp at 2 h was 0.18.

**Q.** What about the Kp at 4 h [7] of the same molecule?
**A.** Its Kp at 4 h is 0.22.

**Q.** And the Kp at 6 h [8]?
**A.** Its Kp at 6 h is 0.19.

**Q.** What about the Kp uu at 1 h [9] of the same molecule?
**A.** The Kp uu at 1 h was 0.15.

**Q.** What about the Kp uu at 2 h [10] of the same molecule?
**A.** Its Kp uu at 2 h is 0.13.

**Q.** And the Kp uu at 4 h [11]?
**A.** The Kp uu at 4 h was 0.16.

**Q.** What about the Kp uu at 6 h [12] of the same molecule?
**A.** Its Kp uu at 6 h is 0.14.

**Q.** What about the concentration at 1 h [13] of the same molecule?
**A.** The concentration at 1 h was 133 nM.

**Q.** What about the concentration at 2 h [14] of the same molecule?
**A.** Its concentration at 2 h is 144 nM.

**Q.** And the concentration at 4 h [15]?
**A.** The concentration at 4 h was 76.2 nM.

**Q.** And the concentration at 6 h [16]?
**A.** Its concentration at 6 h is 54.3 nM.

**Q.** What about the Kp at 1 h [17] of the same molecule?
**A.** The Kp at 1 h was 0.03.

**Q.** What about the Kp at 2 h [18] of the same molecule?
**A.** The Kp at 2 h was 0.03.

**Q.** And the Kp at 4 h [19]?
**A.** Its Kp at 4 h is 0.02.

**Q.** What about the Kp at 6 h [20] of the same molecule?
**A.** Its Kp at 6 h is 0.02.

**Q.** What about the Kp uu at 1 h [21] of the same molecule?
**A.** Its Kp uu at 1 h is 0.29.

**Q.** What about the Kp uu at 2 h [22] of the same molecule?
**A.** Its Kp uu at 2 h is 0.29.

**Q.** And the Kp uu at 4 h [23]?
**A.** Its Kp uu at 4 h is 0.27.

**Q.** What about the Kp uu at 6 h [24] of the same molecule?
**A.** The Kp uu at 6 h was 0.27.

**Q.** What about the Cmax [25] of the same molecule?
**A.** The Cmax was 2360 ng/mL.

**Q.** And the Cmax [26]?
**A.** The Cmax was 453 ng/mL.

**Q.** What about the Cmax [27] of the same molecule?
**A.** The Cmax was 62.2 ng/mL.

**Q.** What about the Tmax [28] of the same molecule?
**A.** Its Tmax is 2 h.

**Q.** What about the Tmax [29] of the same molecule?
**A.** The Tmax was 1 h.

**Q.** What about the Tmax [30] of the same molecule?
**A.** The Tmax was 2 h.

**Q.** What about the AUC(0-t) [31] of the same molecule?
**A.** The AUC(0-t) was 9400 ng·h/mL.

**Q.** What about the AUC(0-t) [32] of the same molecule?
**A.** The AUC(0-t) was 1830 ng·h/mL.

**Q.** What about the AUC(0-t) [33] of the same molecule?
**A.** Its AUC(0-t) is 240 ng·h/mL.

**Q.** What about the AUC(0-inf) [34] of the same molecule?
**A.** Its AUC(0-inf) is 13400 ng·h/mL.

**Q.** And the AUC(0-inf) [35]?
**A.** Its AUC(0-inf) is 2680 ng·h/mL.

**Q.** What about the AUC(0-inf) [36] of the same molecule?
**A.** The AUC(0-inf) was 380 ng·h/mL.
